In this assay the test system is arylamidase activity. As to the kind of experiment: Inhibitory effect of 5NSA on arylamidase activity (initial hydrolytic rates with and without added 5NSA). The format is biochemical. The text has this: At 10 mmol/liter, 50% inhibition of all enzyme activities occurs. Interfering side reactions with 5NSA may occur. The compound reacts with both aliphatic and aromatic amine groups to form Schiff-Base complexes. Particularly susceptible are proteins containing lysine and glutamine. […] Cell proteins react at higher concentrations, i.e., above 1 mmol/liter of 5NSA, to form a blue-green fluorescence, which may account for as much as 15% of the cellular fluorescence at 530 nm. Use of appropriate filters to block out green fluorescence will block out the nonspecific cell protein reaction with 5NSA.

Setting [1] is: 1 mmol/liter 5NSA, initial hydrolytic rate with vs without 5NSA.

The structures appear in SMILES notation.

For the compound `O=Cc1cc([N+](=O)[O-])ccc1O` [5NSA, 5-nitrosalicylaldehyde], under setting [1], the “Effect on Carbobenzoxy-arg-arg-4M2NA hydrolysis” value is given as “not affected significantly” and the “Effect on Lys-Ala-4M2NA activity” value is “not affected significantly”. For the same compound, the “inhibition of all enzyme activities” value (10 mmol/liter 5NSA) is 50%.

For the origin of these results see patent US4229528A, “Fluorescence method for enzyme analysis which couples aromatic amines with aromatic aldehydes” (priority 1978, dated 1980).
